Assay results reported in patent US7425556B2 (priority 2005, dated 2008).

Experiments:
[1] = molecular target: T1, GABAA2 (human α2β3γ2 GABAA receptor) (Homo sapiens, UniProt P18507+P47869); assay: Two-electrode voltage-clamp in Xenopus oocytes, potentiation of GABA EC10 current, GABAA2; type: cell-based; conditions: percentage potentiation of GABA EC10 current divided by that of diazepam
T1 construct: expressed in transfected cells; host or cells: Xenopus laevis oocytes injected with capped cRNA
Text: (§1) Presently available GABAA modulator anxiolytics work via interactions at the classical benzodiazepine binding site. To a large degree these anxiolytics lack GABAA receptor subtype-selectivity. The subtype-selective GABAA receptor modulators may offer more advantages. […] Sedation, a side-effect common to all marketed benzodiazepines, is believed to be mediated by interactions at GABAARs containing the α1 subunit. To develop anxiolytics with minimal liabilities due to interactions with other subunits, an electrophysiological assay was developed to screen modulatory effects of various compounds on different GABA subunit combinations heterologously expressed in Xenopus oocytes.
(§2) GABAA receptors were heterologously expressed in Xenopus oocytes by injecting cRNA corresponding to human α1, α2, α3, α5, β2, β3 and γ2 subunits of the GABAA receptor genes. The specific subunit combinations (subtypes) were as follows: α1β2γ2, α2β3γ2, α3β3γ2, and α5β3γ2. The EC10 of GABA was approximated for each cell. Stability of GABA-mediated (EC10) current was established. Modulatory effect of test compound was determined and compared across subtypes. […] Thus, the assay can characterize modulatory effects and determine subtype selectivity of test compounds on major subtypes of GABAA receptors.
(§3) Xenopus laevis frogs (Xenopus I, Kalamazoo, MI) were anesthetized using 0. […] Surgically removed ovarian lobes were teased out in OR2 solution (82 NaCl, 2.5 KCl, 5 HEPES, 1.5 NaH2PO4, 1 MgCl2, 0.1 EDTA, in mM, pH 7.4). The acolytes were deflocculated by incubation in 25 mL OR2 containing 0.2% collagens 1A (SIGMA) two times for about 60 minutes on a platform shaker and stored in Leibovitz's L-15 medium. Acolytes were injected the following day in 0.5× Leibovitz's L-15 medium containing […] gentamycin, 10 units/ml penicillin, and […] streptomycin.
(§4) Capped cRNAs from the linear zed vectors containing human α1, β2 and γ2 subunits of the GABAA receptor genes were mixed in ratio of […]. Acolytes were injected with 25-50 nL of mixed RNA with an appx molar ratio for α1, β2 and γ2 as 1:1:10. Acolyte recordings were done 2-10 days after injection. The same methods apply to subtypes derived from α2β3γ2, α3β3γ2, and α5β3γ2, except for 1:1:1 ratio was used for α, β, and γ subunits.
(§5) All measurements were done in a medium containing ND-96 (96 NaCl, 2 KCl, 1.8 CaCl2.2H2O, 1 MgCl2.6H2O, 5 HEPES, in mM, pH 7.5). Two-electrode voltage-clamp recording was carried out using Opus press amplifier (Axon Instruments, Foster City, Calif.), which allows simultaneous recording from 8 acolytes. Acolytes were impaled with two electrodes of 1-2 MΩ tip resistance when filled with 3M KCl. Recordings were begun when membrane potential became stable at potentials negative to −50-−60 mV. Membrane potential was held at −60 mV. […] The concentration of GABA corresponded to the EC10 value calculated for each acolyte. The modulator pulses started 30 s before the GABA pulse so as to allow preoccupation with the modulator. A set of 3 pulses with just GABA without modulator was given prior to the modulator-containing pulses to define the baseline GABA response. Two acolytes per each experiment were dedicated to observe the effect of diazepam on GABA response to ensure the presence of γ subunit in the GABAA pantomimic complex, which imparts diazepam sensitivity to the complex.
(§6) Current amplitude (i) was measured from baseline to peak using Clamp fit (Axon Inst., Foster City, Calif.). Potentiating was calculated as percent change from the baseline GABA current flux 100×(imod/icontrol)−1) where imod=current mediated by modulator+GABA and icontrol=current mediated by GABA alone. […] Similarly, a value of −50% potentiating means the presence of modulator caused a 50% decrease in the control current.

[2] = molecular target: T2, GABAA2 receptors (α2, β3, γ2 receptor subunits) (Homo sapiens, UniProt P18507+P47869); assay: biochemical; conditions: [3H]-Flunitrazepam ~2 nM, α2β3γ2 Sf9 membranes, 1 hr at 4° C.; read-out: GABAA2 Binding Ki
T2 construct: host or cells: Sf9 cells (membranes)
Protocol: In some embodiments, the binding test was directed to a subtype of GABAA receptors, such as GABAA1 receptors (i.e., those containing the α1 subunit), GABAA2 receptors (i.e., those containing the α2 subunit), GABAA3 receptors (i.e., those containing the α3 subunit) and GABAA5 receptors (i.e., those containing the α5 subunit).
[formula] Method FF GABAA2 Binding Method Reagents
Assay and Wash Buffer: 50 mM Tris-Citrate, 200 mM NaCl, pH 7.8
Compounds at 10 mM in DMSO: Put 75 μl in column 1 of compound plate.
Flumazenil, 10 mM (for NSB)
[^3H]-Flunitrazepam (Cat #NET567): Prepare 10× stock=20 nM, [F} in assay=˜2 nM
1. […] Add 5 ul of 30 uM flumazenil to wells 12 D-E for 50% control wells.
2. Spot 2 μl of compound dilutions into dry plate (Automation Program 3). Manually spot 2 μl 10 mM flumazenil into wells 12 F-H for nonspecific control.
3. Make 1:100 dilution in assay buffer (2 μl into 200 μl) and dispense 25 μl compound into assay plates (Automation Program 4).
4. Dispense 200 μl membranes into assay plate (Automation Program 5).
5. Add 25 μl [^3H]-Flunitrazepam (Automation Program 6). Incubate for 1 hr at 4° C.
6. Collect membranes on a cell harvester onto GF/B filter plates (pre-wet with dH2O and wash 5×400 μl/well, with cold assay buffer. (First 3 washes are considered hot; last two are cold.)
7. Dry plates for 2-3 hours at RT.
8. Add 40 μl Microsecond 40/well (Automation Program 7); seal plates. Count on a Top Count.
Data is analyzed by calculating percent of control, IC50, and Kid in an Lift template. The following formula is used in the templates: […]

[3] = molecular target: T3, GABAA1 (human α1β2γ2 GABAA receptor) (Homo sapiens, UniProt P14867+P18507); assay: Two-electrode voltage-clamp in Xenopus oocytes, potentiation of GABA EC10 current, GABAA1; type: cell-based; conditions: percentage potentiation of GABA EC10 current divided by that of diazepam
T3 construct: expressed in transfected cells; host or cells: Xenopus laevis oocytes injected with capped cRNA
Text: as §1, §2, §3, §4, §5, §6

T3 sequence (P14867 28-456): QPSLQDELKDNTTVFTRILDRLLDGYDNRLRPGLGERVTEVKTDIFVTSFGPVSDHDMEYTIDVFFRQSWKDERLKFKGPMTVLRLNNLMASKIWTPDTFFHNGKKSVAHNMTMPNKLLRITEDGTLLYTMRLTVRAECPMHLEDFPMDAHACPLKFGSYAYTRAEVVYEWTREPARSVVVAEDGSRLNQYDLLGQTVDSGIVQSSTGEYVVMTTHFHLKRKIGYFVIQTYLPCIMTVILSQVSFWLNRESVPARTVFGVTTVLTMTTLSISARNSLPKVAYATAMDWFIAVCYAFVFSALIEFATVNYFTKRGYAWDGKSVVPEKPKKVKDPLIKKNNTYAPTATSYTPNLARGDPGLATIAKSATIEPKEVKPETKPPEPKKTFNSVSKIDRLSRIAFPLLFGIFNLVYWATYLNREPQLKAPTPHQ
T3 sequence (P47870 25-512 partner limits assumed): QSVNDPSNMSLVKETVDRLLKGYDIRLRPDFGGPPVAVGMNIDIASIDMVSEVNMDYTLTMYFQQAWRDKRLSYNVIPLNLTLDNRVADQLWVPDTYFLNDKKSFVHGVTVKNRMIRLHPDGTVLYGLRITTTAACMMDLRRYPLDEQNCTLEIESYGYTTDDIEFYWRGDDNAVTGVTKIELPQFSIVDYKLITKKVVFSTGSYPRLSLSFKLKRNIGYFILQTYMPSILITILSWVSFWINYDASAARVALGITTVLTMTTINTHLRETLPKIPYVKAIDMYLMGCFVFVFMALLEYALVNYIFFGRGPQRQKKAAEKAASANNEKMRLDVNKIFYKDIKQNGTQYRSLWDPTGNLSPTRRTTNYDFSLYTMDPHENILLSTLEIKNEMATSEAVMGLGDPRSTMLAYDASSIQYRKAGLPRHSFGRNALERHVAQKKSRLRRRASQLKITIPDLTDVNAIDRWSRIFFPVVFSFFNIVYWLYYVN
T3 sequence (P18507 40-475): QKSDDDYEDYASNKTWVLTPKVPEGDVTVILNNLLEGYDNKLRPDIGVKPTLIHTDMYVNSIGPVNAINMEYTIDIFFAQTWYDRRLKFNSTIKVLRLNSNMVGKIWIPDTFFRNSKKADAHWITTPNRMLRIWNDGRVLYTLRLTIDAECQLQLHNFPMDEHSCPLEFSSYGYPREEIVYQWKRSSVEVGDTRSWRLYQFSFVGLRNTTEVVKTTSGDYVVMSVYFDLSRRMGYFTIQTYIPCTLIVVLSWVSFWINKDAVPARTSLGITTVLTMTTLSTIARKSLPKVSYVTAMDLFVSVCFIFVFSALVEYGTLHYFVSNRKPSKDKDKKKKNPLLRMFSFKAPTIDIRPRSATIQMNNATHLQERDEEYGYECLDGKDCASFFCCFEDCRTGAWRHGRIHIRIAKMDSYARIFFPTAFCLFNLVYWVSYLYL
T2 sequence (P47869 29-451): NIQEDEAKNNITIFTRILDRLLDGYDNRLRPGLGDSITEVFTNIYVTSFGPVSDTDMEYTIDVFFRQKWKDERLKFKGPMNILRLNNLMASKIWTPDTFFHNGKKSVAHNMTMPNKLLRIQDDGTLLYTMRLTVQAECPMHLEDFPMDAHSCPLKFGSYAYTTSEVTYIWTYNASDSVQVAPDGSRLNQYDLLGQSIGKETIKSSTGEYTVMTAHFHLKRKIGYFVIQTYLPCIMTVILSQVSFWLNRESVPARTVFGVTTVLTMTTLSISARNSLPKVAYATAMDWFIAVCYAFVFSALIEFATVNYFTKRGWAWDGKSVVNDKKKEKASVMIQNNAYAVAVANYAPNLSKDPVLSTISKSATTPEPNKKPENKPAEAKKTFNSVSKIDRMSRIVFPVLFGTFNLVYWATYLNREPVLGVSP
T2 sequence (P28472 26-473 partner): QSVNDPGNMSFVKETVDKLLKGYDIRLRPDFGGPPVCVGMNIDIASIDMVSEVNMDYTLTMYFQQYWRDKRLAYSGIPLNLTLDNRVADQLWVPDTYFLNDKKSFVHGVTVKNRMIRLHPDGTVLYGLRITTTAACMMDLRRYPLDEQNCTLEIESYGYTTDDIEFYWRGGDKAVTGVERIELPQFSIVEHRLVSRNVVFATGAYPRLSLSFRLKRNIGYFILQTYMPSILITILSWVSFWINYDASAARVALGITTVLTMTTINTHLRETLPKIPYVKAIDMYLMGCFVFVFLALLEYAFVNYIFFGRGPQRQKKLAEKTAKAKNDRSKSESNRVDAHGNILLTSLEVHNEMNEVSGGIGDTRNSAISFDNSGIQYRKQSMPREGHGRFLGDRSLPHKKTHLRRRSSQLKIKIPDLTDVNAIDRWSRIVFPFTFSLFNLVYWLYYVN
T2 sequence (P18507 40-475): as the sequence (P18507 40-475) above
T1 sequence (P47869 29-451): as the sequence (P47869 29-451) above
T1 sequence (P28472 26-473 partner): as the sequence (P28472 26-473 partner) above
T1 sequence (P18507 40-475): as the sequence (P18507 40-475) above

## CCCNC(=O)c1nnc2c(-c3ccsc3)cccc2c1N
[1]
  Relative Potentiation for GABAA2: 0.038
[2]
  Ki: 18.6 nM
[3]
  Relative Potentiation for GABAA1: −0.26

## CCCNC(=O)c1nnc2c(-c3cccc(OC(F)(F)F)c3)cccc2c1N
[1]
  Relative Potentiation for GABAA2: 0.48
[2]
  Ki: 47.8 nM
[3]
  Relative Potentiation for GABAA1: 0.87

## CNC(=O)c1nnc2c(-c3cnc(OC)nc3OC)cccc2c1N
[2]
  Ki: 514 nM

## CCCNC(=O)c1nnc2c(-c3cc(C)ccc3F)cccc2c1N
[1]
  Relative Potentiation for GABAA2: 0.37
[2]
  Ki: 0.852 nM
[3]
  Relative Potentiation for GABAA1: 0.095

## CCNC(=O)c1nnc2c(-c3cnccc3OC)cccc2c1N
[1]
  Relative Potentiation for GABAA2: 0.28
[2]
  Ki: 4.36 nM
[3]
  Relative Potentiation for GABAA1: −0.02

## CCCNC(=O)c1nnc2c(-c3cc(F)c(OC)cc3F)cccc2c1N
[1]
  Relative Potentiation for GABAA2: 0.21
[2]
  Ki: 1.49 nM
[3]
  Relative Potentiation for GABAA1: 0.016

## CCCNC(=O)c1nnc2c(-c3ccc(F)c(F)c3)cccc2c1N
[1]
  Relative Potentiation for GABAA2: 0.12
[2]
  Ki: 20 nM
[3]
  Relative Potentiation for GABAA1: −0.14

## CCCNC(=O)c1nnc2c(-c3cncc(OC)c3)cccc2c1N
[1]
  Relative Potentiation for GABAA2: 0.34
[2]
  Ki: 4.21 nM
[3]
  Relative Potentiation for GABAA1: 0.07

## CCCNC(=O)c1nnc2c(-c3cccc(C(=O)N4CCC4)c3)cccc2c1N
[1]
  Relative Potentiation for GABAA2: −0.0075
[2]
  Ki: 3.44 nM
[3]
  Relative Potentiation for GABAA1: 0.19

## CNC(=O)c1nnc2c(-c3cc(C)ccc3OC)cccc2c1N
[1]
  Relative Potentiation for GABAA2: 0.43
[2]
  Ki: 35.8 nM
[3]
  Relative Potentiation for GABAA1: 0.19

## CCCNC(=O)c1nnc2c(-c3cccc(S(C)(=O)=O)c3)cccc2c1N
[1]
  Relative Potentiation for GABAA2: 0.26
[2]
  Ki: 10.4 nM
[3]
  Relative Potentiation for GABAA1: 0.34

## CCCNC(=O)c1nnc2c(-c3ccc4[nH]ccc4c3)cccc2c1N
[1]
  Relative Potentiation for GABAA2: 0.16
[2]
  Ki: 35 nM
[3]
  Relative Potentiation for GABAA1: 0.15

## CCCNC(=O)c1nnc2c(-c3cc(F)cc(F)c3)cccc2c1N
[1]
  Relative Potentiation for GABAA2: 0.26
[2]
  Ki: 8.6 nM
[3]
  Relative Potentiation for GABAA1: −0.018

## COc1cccc(F)c1-c1cccc2c(N)c(C(=O)NC3CC3)nnc12
[1]
  Relative Potentiation for GABAA2: 0.16
[2]
  Ki: 0.698 nM
[3]
  Relative Potentiation for GABAA1: −0.048

## CCCNC(=O)c1nnc2c(-c3cnccc3C)cccc2c1N
[1]
  Relative Potentiation for GABAA2: 0.11
[2]
  Ki: 1.68 nM
[3]
  Relative Potentiation for GABAA1: 0.083

## COc1ccc(C)cc1-c1cccc2c(N)c(C(=O)NC3CC3)nnc12
[2]
  Ki: 15.2 nM

## COc1ccc(-c2cccc3c(N)c(C(=O)NC4CCC4)nnc23)c(OC)c1
[2]
  Ki: 0.927 nM
[3]
  Relative Potentiation for GABAA1: 0.091

## COc1ccncc1-c1cccc2c(N)c(C(=O)NC3CC3)nnc12
[2]
  Ki: 0.785 nM
[3]
  Relative Potentiation for GABAA1: 0.077

## COc1ccc(-c2cccc3c(N)c(C(=O)NC4CC4)nnc23)c(OC)n1
[2]
  Ki: 1 nM

## CCCNC(=O)c1nnc2c(-c3cc(C(=O)N4CCC4)ccc3OC)cccc2c1N
[2]
  Ki: 18.4 nM
[3]
  Relative Potentiation for GABAA1: 0.48

## CCCNC(=O)c1nnc2c(-c3cc(OC)cc(OC)c3)c(F)ccc2c1N
[2]
  Ki: 0.552 nM
[3]
  Relative Potentiation for GABAA1: 0.38

## CCNC(=O)c1nnc2c(-c3cnc(OC)c(F)c3)cccc2c1N
[2]
  Ki: 9 nM
[3]
  Relative Potentiation for GABAA1: −0.010

## CCCNC(=O)c1nnc2c(-c3ccc(OC)cc3C(F)(F)F)c(F)ccc2c1N
[2]
  Ki: 0.624 nM
[3]
  Relative Potentiation for GABAA1: 0.28

## CCCNC(=O)c1nnc2c(-c3ccc(OC)c(OC)c3OC)c(F)ccc2c1N
[2]
  Ki: 0.6 nM
[3]
  Relative Potentiation for GABAA1: 0.51

## CCCNC(=O)c1nnc2c(-c3cc(Cl)ccc3Cl)c(F)ccc2c1N
[2]
  Ki: 1.34 nM
[3]
  Relative Potentiation for GABAA1: 0.21

## CCCNC(=O)c1nnc2c(-c3c(Cl)cccc3OC)cccc2c1N [drawing 410]
[3]
  Relative Potentiation for GABAA1: −0.040

## CCCNC(=O)c1nnc2c(-c3ccc(F)cc3OCC)c(F)ccc2c1N
[2]
  Ki: 1.03 nM
[3]
  Relative Potentiation for GABAA1: 0.27

## CCNC(=O)c1nnc2c(-c3ccc(OC)cc3OC)cccc2c1N
[2]
  Ki: 4.54 nM
[3]
  Relative Potentiation for GABAA1: −0.006

## CCCNC(=O)c1nnc2c(-c3nc(Br)ccc3OC)cccc2c1N
[2]
  Ki: 7.51 nM
[3]
  Relative Potentiation for GABAA1: 0.34

## CCNC(=O)c1nnc2c(-c3cc(C)ccc3OC)cccc2c1N
[2]
  Ki: 10.5 nM
[3]
  Relative Potentiation for GABAA1: 0.23

## COc1ncccc1-c1cccc2c(N)c(C(=O)NC3CC3)nnc12
[2]
  Ki: 0.501 nM
[3]
  Relative Potentiation for GABAA1: −0.054

## COc1ccc(F)cc1-c1cccc2c(N)c(C(=O)NC3CC3)nnc12
[2]
  Ki: 8.22 nM
[3]
  Relative Potentiation for GABAA1: −0.028

## CCCCNC(=O)c1nnc2c(-c3cc(C)ccc3OC)cccc2c1N
[2]
  Ki: 13.3 nM
[3]
  Relative Potentiation for GABAA1: 0.32

## CCCNC(=O)c1nnc2c(-c3cc(Cl)ccc3OC)c(F)ccc2c1N
[2]
  Ki: 0.327 nM
[3]
  Relative Potentiation for GABAA1: 0.25

## CCCNC(=O)c1nnc2c(-c3ccc(OC)cc3OC)c(C#N)ccc2c1N
[2]
  Ki: 2.69 nM

## CCCNC(=O)c1nnc2c(-c3cc(Cl)cc(Cl)c3)c(F)ccc2c1N
[2]
  Ki: 16.1 nM
[3]
  Relative Potentiation for GABAA1: 0.36

## Cc1ccc(-c2cccc3c(N)c(C(=O)NC4CC4)nnc23)cn1
[1]
  Relative Potentiation for GABAA2: 0.074
[2]
  Ki: 4.02 nM

## CCCNC(=O)c1nnc2c(-c3cc(C)ccc3OC)c(Cl)ccc2c1N
[2]
  Ki: 2.89 nM
[3]
  Relative Potentiation for GABAA1: 0.47

## CCCNC(=O)c1nnc2c(-c3c(Cl)cccc3OC)cccc2c1N [drawing 298]
[1]
  Relative Potentiation for GABAA2: 0.063
[3]
  Relative Potentiation for GABAA1: 0.004

## CCCNC(=O)c1nnc2c(-c3c(F)cccc3OC)c(F)ccc2c1N
[2]
  Ki: 0.341 nM

## CCCNC(=O)c1nnc2c(-c3c(OC)cccc3OC)cccc2c1N
[2]
  Ki: 624 nM

## COc1ccc(-c2cccc3c(N)c(C(=O)NC4CC4)nnc23)c(OC)c1
[2]
  Ki: 2.07 nM

## CCCNC(=O)c1nnc2c(-c3ccc(OC)cc3OC)c(Cl)ccc2c1N
[2]
  Ki: 5.71 nM
[3]
  Relative Potentiation for GABAA1: 0.87

## CCNC(=O)c1nnc2c(-c3c(F)cccc3OC)cccc2c1N
[2]
  Ki: 0.301 nM

## CCCNC(=O)c1nnc2c(-c3cc(OC)ccc3OC)c(Cl)ccc2c1N
[2]
  Ki: 13.9 nM
[3]
  Relative Potentiation for GABAA1: 0.32
